The NIST ThermoML archive (doi:10.1021/je2013704)
± gives the expanded uncertainty stated by the source.

Test: mn = molality of the nth substance listed, in mol/kg
Conditions: Liquid, Vibrating tube method

[Cl][Al]([Cl])[Cl] [aluminum chloride] + O
mass density (298.12 K, 900 kPa, m1 = 1): 1105.53 ± 0.16 kg/m3 | mass density (298.12 K, 900 kPa, m1 = 2): 1212.19 ± 0.22 kg/m3 | mass density (298.12 K, 9900 kPa, m1 = 1): 1108.79 ± 0.19 kg/m3 | mass density (298.12 K, 9900 kPa, m1 = 2): 1214.96 ± 0.3 kg/m3 | mass density (298.12 K, 19900 kPa, m1 = 1): 1112.3 ± 0.25 kg/m3 | mass density (298.12 K, 19900 kPa, m1 = 2): 1217.92 ± 0.41 kg/m3 | mass density (298.12 K, 29900 kPa, m1 = 1): 1115.82 ± 0.3 kg/m3 | mass density (298.12 K, 29900 kPa, m1 = 2): 1220.94 ± 0.52 kg/m3 | mass density (298.12 K, 39900 kPa, m1 = 1): 1119.28 ± 0.37 kg/m3 | mass density (298.12 K, 39900 kPa, m1 = 2): 1223.85 ± 0.64 kg/m3 | mass density (298.12 K, 49900 kPa, m1 = 1): 1122.69 ± 0.43 kg/m3 | mass density (298.12 K, 49900 kPa, m1 = 2): 1226.72 ± 0.76 kg/m3 | mass density (298.12 K, 59900 kPa, m1 = 1): 1125.95 ± 0.5 kg/m3 | mass density (298.12 K, 59900 kPa, m1 = 2): 1229.57 ± 0.88 kg/m3 | mass density (298.12 K, 68400 kPa, m1 = 1): 1128.83 ± 0.57 kg/m3 | mass density (298.12 K, 68400 kPa, m1 = 2): 1232.02 ± 0.99 kg/m3 | mass density (323.07 K, 900 kPa, m1 = 1): 1096.76 ± 0.15 kg/m3 | mass density (323.07 K, 900 kPa, m1 = 2): 1203.26 ± 0.21 kg/m3 | mass density (323.07 K, 9900 kPa, m1 = 1): 1099.96 ± 0.19 kg/m3 | mass density (323.07 K, 9900 kPa, m1 = 2): 1206.02 ± 0.3 kg/m3 | mass density (323.07 K, 19900 kPa, m1 = 1): 1103.44 ± 0.23 kg/m3 | mass density (323.07 K, 19900 kPa, m1 = 2): 1209.01 ± 0.4 kg/m3 | mass density (323.07 K, 29900 kPa, m1 = 1): 1106.84 ± 0.29 kg/m3 | mass density (323.07 K, 29900 kPa, m1 = 2): 1211.9 ± 0.51 kg/m3 | mass density (323.07 K, 39900 kPa, m1 = 1): 1110.31 ± 0.35 kg/m3 | mass density (323.07 K, 39900 kPa, m1 = 2): 1214.88 ± 0.62 kg/m3 | mass density (323.07 K, 49900 kPa, m1 = 1): 1113.67 ± 0.41 kg/m3 | mass density (323.07 K, 49900 kPa, m1 = 2): 1217.8 ± 0.73 kg/m3 | mass density (323.07 K, 59900 kPa, m1 = 1): 1116.93 ± 0.47 kg/m3 | mass density (323.07 K, 59900 kPa, m1 = 2): 1220.6 ± 0.85 kg/m3 | mass density (323.07 K, 68400 kPa, m1 = 1): 1119.6 ± 0.53 kg/m3 | mass density (323.07 K, 68400 kPa, m1 = 2): 1222.88 ± 0.95 kg/m3 | mass density (348.04 K, 900 kPa, m1 = 1): 1085.66 ± 0.15 kg/m3 | mass density (348.04 K, 900 kPa, m1 = 2): 1192.82 ± 0.21 kg/m3 | mass density (348.04 K, 9900 kPa, m1 = 1): 1088.98 ± 0.18 kg/m3 | mass density (348.04 K, 9900 kPa, m1 = 2): 1196 ± 0.29 kg/m3 | mass density (348.04 K, 19900 kPa, m1 = 1): 1092.48 ± 0.22 kg/m3 | mass density (348.04 K, 19900 kPa, m1 = 2): 1199.11 ± 0.38 kg/m3 | mass density (348.04 K, 29900 kPa, m1 = 1): 1096.02 ± 0.27 kg/m3 | mass density (348.04 K, 29900 kPa, m1 = 2): 1202.1 ± 0.49 kg/m3 | mass density (348.04 K, 39900 kPa, m1 = 1): 1099.44 ± 0.32 kg/m3 | mass density (348.04 K, 39900 kPa, m1 = 2): 1205.07 ± 0.59 kg/m3 | mass density (348.04 K, 49900 kPa, m1 = 1): 1102.74 ± 0.38 kg/m3 | mass density (348.04 K, 49900 kPa, m1 = 2): 1207.92 ± 0.7 kg/m3 | mass density (348.04 K, 59900 kPa, m1 = 1): 1106.07 ± 0.44 kg/m3 | mass density (348.04 K, 59900 kPa, m1 = 2): 1210.85 ± 0.82 kg/m3 | mass density (348.04 K, 68400 kPa, m1 = 1): 1108.86 ± 0.49 kg/m3 | mass density (348.04 K, 68400 kPa, m1 = 2): 1213.26 ± 0.91 kg/m3 | mass density (372.99 K, 900 kPa, m1 = 1): 1072.64 ± 0.15 kg/m3 | mass density (372.99 K, 900 kPa, m1 = 2): 1181.64 ± 0.2 kg/m3 | mass density (372.99 K, 9900 kPa, m1 = 1): 1075.97 ± 0.17 kg/m3 | mass density (372.99 K, 9900 kPa, m1 = 2): 1184.73 ± 0.28 kg/m3 | mass density (372.99 K, 19900 kPa, m1 = 1): 1079.63 ± 0.21 kg/m3 | mass density (372.99 K, 19900 kPa, m1 = 2): 1187.9 ± 0.37 kg/m3 | mass density (372.99 K, 29900 kPa, m1 = 1): 1083.19 ± 0.25 kg/m3 | mass density (372.99 K, 29900 kPa, m1 = 2): 1191.11 ± 0.47 kg/m3 | mass density (372.99 K, 39900 kPa, m1 = 1): 1086.72 ± 0.29 kg/m3 | mass density (372.99 K, 39900 kPa, m1 = 2): 1194.19 ± 0.57 kg/m3 | mass density (372.99 K, 49900 kPa, m1 = 1): 1090.2 ± 0.34 kg/m3 | mass density (372.99 K, 49900 kPa, m1 = 2): 1197.22 ± 0.67 kg/m3 | mass density (372.99 K, 59900 kPa, m1 = 1): 1093.58 ± 0.4 kg/m3 | mass density (372.99 K, 59900 kPa, m1 = 2): 1200.14 ± 0.78 kg/m3 | mass density (372.99 K, 68400 kPa, m1 = 1): 1096.34 ± 0.45 kg/m3 | mass density (372.99 K, 68400 kPa, m1 = 2): 1202.66 ± 0.87 kg/m3
